Legend:
[1] = topical application; cited from earlier work
[2] = system: Becker's nevus; assay: Topical flutamide applied to a Becker's nevus (Example 1, single patient); assay type: in vivo, person; conditions: topical 4% solution, twice daily
Source text: FIG. 1a (left) depicts a person with a Becker's nevus before the antiandrogen treatment as described in example 1. FIG. 1b (right) depicts a person after treatment with a topical antiandrogen, specifically topical flutamide. […] A topical 4% solution of flutamide was applied twice daily to a Becker's nevus. […] (FIG. 1)

CC(C)C(=O)Nc1ccc([N+](=O)[O-])c(C(F)(F)F)c1 [flutamide, methyl-N-[4-nitro-3-(trifluoromethyl)phenyl]-propanamide]
absorption into the skin and systemic absorption [1]: systemic absorption is measurable
cutaneous or systemic adverse effects [2]: No cutaneous or systemic adverse effects
pigmentary change in the normal skin surrounding the Becker's nevus ([2]; during treatment): no pigmentary change
menstrual irregularities ([2]; patient-reported): denied any menstrual irregularities

Source: patent US20140243416A1, “Topical Antiandrogen Therapy for the Treatment of Becker's Nevus” (priority 2013, published 2014)
